PMC7803423, “Identification of CTL Epitopes on Efflux Pumps of the ATP-Binding Cassette and the Major Facilitator Superfamily of Mycobacterium tuberculosis” (Journal of Immunology Research, 2021)

What was measured:
HLA-A*0201 on T2A2 cells = molecular target: T1, HLA-A*0201 on T2A2 cells (Homo sapiens, UniProt P04439, D140Y/D185E/D98H/E176V/E277Q/G131W/G231S/I119V/I121R/I166T/I218V/L300P/L318F/N151K/N90K/P208A/P217A/Q86G/Q94H/R138H/R169H/T345S); test: T2A2 cell binding affinity assay; details: 50 μg/mL peptide + 3 μg/mL β2-M; for FI (fluorescence index): FI = [MFI of the peptide − MFI of the background]/[MFI of the background], T2A2 cells, 18 h; for MFI: T2A2 cells 1 × 10^6 cells/mL, 37°C 18 h, HLA-A2 antibody BB7.2, flow cytometry, background MFI 131
T1 construct: T2A2 cells (1 × 10^6 cells/mL) resuspended in serum-free IMDM medium were seeded in 24-well plates; endogenous in cells; host or cells: T2A2 cells

[1] = molecular target: T2, peptide/HLA-A*0201 complex on T2A2 cells (Homo sapiens, UniProt P04439, D140Y/D185E/D98H/E176V/E277Q/G131W/G231S/I119V/I121R/I166T/I218V/L300P/L318F/N151K/N90K/P208A/P217A/Q86G/Q94H/R138H/R169H/T345S); test: Peptide/HLA-A*0201 complex stability assay; assay type: binding; details: time for loss of 50% of peptide/HLA-A*0201 complexes stabilized at 0 h, 50 μg/mL peptide, 18 h, brefeldin A 10 μg/mL 1 h, then 0, 2, 4, 6 h at 37°C, flow cytometry
T2 construct: endogenous in cells; host or cells: T2A2 cells
Procedure: The peptide/MHC complex stabilization assays were performed similarly. T2A2 cells were incubated with 50 μg/mL peptides and 3 μg/mL β2-M for 18 h. Then, 10 μg/mL brefeldin A (203729, Sigma, USA) were added in medium for another 1 h, subsequently washed by serum-free IMDM medium and incubated at 37°C for 0, 2, 4, and 6 h. Finally, cells were washed twice, stained with HLA-A2-PE-Cyanine 7 monoclonal antibody, and analyzed by flow cytometer (FACS Calibur, BD Bioscience, USA). DC50 was defined as an estimate of the time required for the loss of 50% of the peptide/HLA-A^∗0201 complexes stabilized at time 0 h.

[2] = test system: peptide-induced CD8+ T cells from HLA-A*02+ PPD+ / PPD− donors; test: Intracellular cytokine IFN-γ staining (ICS) of peptide-induced CTLs in vitro; assay type: cell-based, human; details: for CD8+ IFN-γ+ T cells, PPD+ donors compared with PBS-treated group: n = 3 donors; for CD8+ IFN-γ+ T cells, PPD+ donors compared with PPD− donors: n = 3 donors each, Student's t-test
[3] = test system: peptide-pulsed T2A2 cells; test: LDH cytotoxicity assay of peptide-induced CTLs in vitro; assay type: cell-based, human; details: E : T ratio 50 : 1, CTLs from HLA-A*02+PPD+ donors, T2A2 cells pulsed with corresponding peptide, 4 h, n = 4
IFN-γ = test: Serum IFN-γ ELISA after peptide immunization; assay type: in vivo, HLA-A2.1/K^b transgenic mice; details: serum day 11, n = 5
[4] = test system: peptide-loaded T2A2 cells; test: LDH lysis assay with CTLs from immunized mice; assay type: in vivo, HLA-A2.1/K^b transgenic mice; details: peptide-loaded T2A2 target cells, n = 5
[5] = test system: peptide-induced CTLs from HLA-A*02+PPD+ donors; test: IFN-γ ELISPOT of peptide-induced CTLs in vitro; assay type: cell-based, human; details: CTLs induced with peptide-loaded DCs from HLA-A*02+PPD+ donors, day 21; stimulators peptide-loaded T2A2 cells, 18 h
[6] = test system: CD8+ T cells of splenic lymphocytes; test: ICS assay of restimulated splenic lymphocytes from immunized mice; assay type: in vivo, HLA-A2.1/K^b transgenic mice; details: ICS on day 7 of restimulation, n = 5
[7] = CFA day -14 then peptide in IFA

Sequence	FI (fluorescence index) (HLA-A*0201 on T2A2 cells)	MFI (HLA-A*0201 on T2A2 cells)	DC50 [1]	further results
ALCEKVTII [Rv1218c-p200, predicted HLA-A2-restricted 9-mer peptide … from MTB efflux pump antigen Rv1218c]	1.75	366	> 4 h	DC50 ([1]; listed as Rv1218c-P200): >4 h
ALDGLDLTV [Rv1218c-p24]	3.32	569	>4 h	CD8+ IFN-γ+ T cells, PPD+ donors compared with PBS-treated group [2]: more CD8^+ IFN-γ^+ T cells than the PBS-treated group; CD8+ IFN-γ+ T cells, PPD+ donors compared with PPD− donors [2]: significantly more CD8^+ IFN-γ^+ T cells; lysis rate [3]: 88.6%; serum IFN-γ concentration (ELISA), CFA preimmunization (IFN-γ; CFA 200 μL s.c. day -14, then peptide 100 μg/mice + T helper epitope 140 μg/mice in IFA days 0, 5, 10): 1817.0 pg/mL; serum IFN-γ concentration (ELISA), IFA (IFN-γ; peptide 100 μg/mice + T helper epitope 140 μg/mice in IFA 1 : 1, s.c. base of tail, days 0, 5, 10): 363 pg/mL; lysis rate, CFA preimmunization, E : T 40 : 1 [4, 7]: 24.6%; lysis rate, CFA preimmunization, E : T 80 : 1 [4, 7]: 41.2%; lysis rate, IFA, E : T 80 : 1 ([4]; IFA immunization): 26.4%; IFN-γ secretion of peptide-induced CTLs (ELISPOT) [5]: secreted IFN-γ most potently; CD8+ IFN-γ+ T cells compared with NS group, CFA preimmunization [6, 7]: produced more CD8^+ IFN-γ^+ T cells than the NS group; CD8+ IFN-γ+ T cells compared with NS group, IFA ([6]; IFA immunization): induced more CD8^+IFN-γ^+ T cells than the NS group
GLDPLMENV [Rv1218c-p165, predicted HLA-A2-restricted 9-mer peptide … from MTB efflux pump antigen Rv1218c]	2.6	479	> 2 h	
ILIGETIKI [COX-2-p321, reference compound]	2.11	408	>4 h	
LLDEPSSGL [Rv1218c-p158, predicted HLA-A2-restricted 9-mer peptide … from MTB efflux pump antigen Rv1218c]	2.35	439	>4 h	CD8+ IFN-γ+ T cells, PPD+ donors compared with PPD− donors [2]: significantly more CD8^+ IFN-γ^+ T cells; IFN-γ secretion of peptide-induced CTLs (ELISPOT) [5]: secreted IFN-γ most potently
LLDEPTSAL [Rv0933-p186, predicted HLA-A2-restricted 9-mer peptide … from MTB efflux pump antigen Rv0933]	2.52	465	<2 h	
LLLSKPDLL [Rv2477c-p173, predicted HLA-A2-restricted 9-mer peptide … from MTB efflux pump antigen Rv2477c]	1.15	272		
LMMPQTVTV [Rv2994-p223, predicted HLA-A2-restricted 9-mer peptide … from MTB efflux pump antigen Rv2994]	2.28	430	<2 h	
RLGNVVVEV [Rv2477c-p316, predicted HLA-A2-restricted 9-mer peptide … from MTB efflux pump antigen Rv2477c]	1.58	348	>2 h	
RLTEELAWV [Rv2477c-p265, predicted HLA-A2-restricted 9-mer peptide … from MTB efflux pump antigen Rv2477c]	1.36	315		
SLADRLTVI [Rv0933-p208, predicted HLA-A2-restricted 9-mer peptide … from MTB efflux pump antigen Rv0933]	2.59	479	<2 h	
SLVSQPPTL [Rv1218c-p280, predicted HLA-A2-restricted 9-mer peptide … from MTB efflux pump antigen Rv1218c]	1.62	353	<2 h	
TLFKTIVGL [Rv2477c-p362, predicted HLA-A2-restricted 9-mer peptide … from MTB efflux pump antigen Rv2477c]	1.72	367	> 2 h	
VLAADAVFV [Rv2459c-p469, predicted HLA-A2-restricted 9-mer peptide … from MTB efflux pump antigen Rv2459c]	2.36	440	>4 h	CD8+ IFN-γ+ T cells, PPD+ donors compared with PBS-treated group [2]: more CD8^+ IFN-γ^+ T cells than the PBS-treated group; CD8+ IFN-γ+ T cells, PPD+ donors compared with PPD− donors [2]: significantly more CD8^+ IFN-γ^+ T cells; IFN-γ secretion of peptide-induced CTLs (ELISPOT) [5]: secreted IFN-γ most potently
VLATGVTLV [Rv2209-p158, predicted HLA-A2-restricted 9-mer peptide … from MTB efflux pump antigen Rv2209]	2.54	462	>4 h	
WMSIGVFSV [Rv1819c-p122, predicted HLA-A2-restricted 9-mer peptide … from MTB efflux pump antigen Rv1819c]	0.35	177		
YLLGGTVVV [Rv1877-p71, predicted HLA-A2-restricted 9-mer peptide … from MTB efflux pump antigen Rv1877]	2.17	419	>2 h	
